What was measured:
Format in all cases: in vivo
Ctenocephalides felis [1] = assay: Ctenocephalides felis oral test (CTECFE Oral); conditions: 48 h, read-out: activity (mortality)
Procedure: Ctenocephalides felis—Oral Test (CTECFE Oral) Solvent: dimethyl sulfoxide
To produce a suitable preparation of active compound, 10 mg of active compound are dissolved in 0.5 mL solvent, and the concentrate is diluted with cattle blood to the desired concentration.
Approximately 20 adult unfed cat fleas (Ctenocephalides felis) are placed in flea chambers. The blood chamber, sealed with parafilm on the bottom, are filled with cattle blood supplied with compound solution and placed on the gauze covered top of the flea chamber, so that the fleas are able to suck the blood. The blood chamber is heated to 37° C. whereas the flea chamber is kept at room temperature.
After 2 days mortality in % is determined. 100% means all the fleas have been killed; 0% means none of the fleas have been killed.

Rhipicephalus microplus [2] = assay: Rhipicephalus (Boophilus) microplus in-vitro contact test, larval cattle tick, strain Parkhurst (BOOPMI Cont); conditions: application rate 5 μg/cm^2 (=500 g/ha), tick larvae, after 48 hours, read-out: activity (efficacy: 100% means all larvae are dead or moribund)
Method in brief: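 After 48 h at 27° C. and 85% humidity, percent dead or moribund larvae was scored from negative geotactic behaviour. Larvae (20-50, Parkhurst strain, synthetic pyrethroid-resistant) were exposed in tubes coated with compound from acetone, 900 ppm corresponding to 5 μg/cm^2.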

Myzus persicae = Myzus persicae oral test; conditions: 120 h, read-out: activity (mortality)
Procedure: Myzus persicae—Oral Test Solvent: 100 parts by weight acetone
To produce a suitable preparation of active compound, 1 part by weight of active compound is mixed with the stated amount of solvent, and the concentrate is diluted with water to the desired concentration.
50 μL compound solution is filled in microtiter plates and 150 μL IPL41 insect medium (33%+15% sugar) is added to obtain a total volume of 200 μL per well. Afterwards the plates are sealed with parafilm through which a mixed population of the green peach aphid (Myzus persicae) can suck on the compound preparation.
After 5 days mortality in % is determined. 100% means all aphids have been killed and 0% means none of the aphids have been killed.

[3] = system: Aedes aegypti strain MONHEIM; assay: Aedes aegypti test (AEDSAE surface treatment & contact assay); conditions: exposure 30 minutes, 24 hours after contact, read-out: efficacy (mortality); for mortality at 4 mg/m2: surface concentration 4 mg/m^2, glazed tile; for mortality at 20 mg/m2: surface concentration 20 mg/m^2, glazed tile
Procedure: Aedes aegypti Test (AEDSAE Surface Treatment & Contact Assay) Solvent: Aceton+2000 ppm rapeseed oil methyl ester (RME)
(§1) In order to produce a sufficient, active ingredient containing solution it is necessary to solve the test compound in the solvent-mix (acetone at 2 mg/ml/RME 2000 ppm). This solution is pipetted onto a glazed tile and after evaporation of the acetone, adult mosquitoes of the species Aedes aegypti strain MONHEIM are placed onto the dried surface. The exposure time is 30 minutes. Mortality in percent (%) is determined 24 hours after contact of the insects to the treated surface. 100% mortality means that all tested insects are dead, whereas 0% means that no insect died.

[4] = system: Musca domestica strain WHO—N; assay: Musca domestica test (MUSCDO surface treatment & contact assay); conditions: exposure 30 minutes, 24 hours after contact, read-out: efficacy (mortality); for mortality at 20 mg/m2: surface concentration 20 mg/m^2, glazed tile; for mortality at 4 mg/m2: surface concentration 4 mg/m^2, glazed tile
Procedure: Musca domestica Test (MUSCDO Surface Treatment & Contact Assay) Solvent: Aceton+2000 ppm rapeseed oil methyl ester (RME)
as §1, with “flies” for “mosquitoes”, “Musca domestica” for “Aedes aegypti”, “WHO—N” for “MONHEIM”

Diabrotica balteata = Diabrotica balteata spray test; conditions: 168 h, wheat seeds, larvae, after 7 days, read-out: activity (efficacy: 100% means all seedlings have grown up like in the untreated, uninfected control); for pest or weed control at 32 µg/disc, 100 g/ha: application rate 100 g/ha (=32 μg/well); for pest or weed control at 160 µg/disc, 500 g/ha: application rate 500 g/ha (=160 μg/well)
Method in brief: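 Efficacy (%) was scored 7 days after spraying, with 100% meaning growth like the untreated, uninfected control and 0% meaning no seedling grew. Spray solutions of compound in acetone/DMF with emulsifier-containing water went onto 1-day-germinated wheat seeds, and each unit was then infested with 10-20 banded cucumber beetle larvae.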

Rhipicephalus microplus [5] = assay: Rhipicephalus (Boophilus) microplus injection test (BOOPMI Inj); conditions: 168 h, injection into adult engorged female ticks, egg deposition after 7 days, read-out: activity (efficacy: 100% means all eggs are infertile); for pest or weed control at 0.004 mg: application rate 4 μg/tick; for pest or weed control at 0.02 mg: application rate 20 μg/tick
Method in brief: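 Compound in DMSO, 1 μL, injected abdominally into five adult engorged females, which were then held in a climate chamber. Read-out is egg fertility, scored from deposition at 7 days, with unclear eggs followed to hatching (~42 days); 0% means all eggs fertile, 100% all infertile.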

Spodoptera frugiperda = Spodoptera frugiperda spray test; conditions: in Zea mays, 168 h, read-out: activity (mortality)
Method in brief: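 Percent kill of fall armyworm caterpillars was assessed 7 days after infesting dried, treated maize leaf sections. Treatment was a spray of compound in acetone/dimethylformamide, diluted with water containing emulsifier at 1000 ppm.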

Ctenocephalides felis [6] = assay: Ctenocephalides felis in-vitro contact test, adult cat flea (CTECFE Cont); conditions: application rate 5 μg/cm^2 (=500 g/ha), adult cat fleas, after 48 hours, read-out: activity (efficacy: 100% means all fleas are dead or moribund)
Procedure: Ctenocephalides felis—In-Vitro Contact Tests Adult Cat Flea (CTECFE Cont)
9 mg compound is solved in 1 mL acetone and diluted with acetone to the desired concentration. 250 μL of the test solution is filled in 25 mL glass test tubes and homogeneously distributed on the inner walls by rotation and tilting on a shaking device (2 h at 30 rpm). With a compound concentration of 900 ppm, an inner surface of 44.7 cm^2 and a homogeneous distribution, a dose of 5 μg/cm^2 is achieved.
After the solvent has evaporated, each test tube is filled with 5-10 adult cat fleas (Ctenocephalides felis), closed with a perforated lid and incubated in a lying position at room temperature and relative humidity. After 48 hours efficacy is determined. The fleas are patted on the ground of the tubes and are incubated on a heating plate at 45-50° C. for at most 5 minutes. Immotile or uncoordinated moving fleas, which are not able to escape the heat by climbing upwards, are marked as dead or moribund.
An efficacy of 100% means all fleas are dead or moribund; 0% means no fleas are dead or moribund.

Rhipicephalus sanguineus = Rhipicephalus sanguineus in-vitro contact test, adult brown dog ticks (RHIPSA Cont); conditions: 48 h, after 48 hours, read-out: activity (efficacy: 100% means all ticks are dead or moribund); for pest or weed control at 1 µg/cm2, 100 g/ha: application rate 1 μg/cm^2 (=100 g/ha); for pest or weed control at 5 µg/cm2, 500 g/ha: application rate 5 μg/cm^2 (=500 g/ha)
Method in brief: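 Mortality of adult R. sanguineus was judged 48 h after contact with acetone-applied residues on glass tube walls. Ticks that stayed immotile or moved without coordination when heated to 45–50 °C (max 5 min) counted as dead or moribund.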

SMILES	mortality at 100 ppm (Ctenocephalides felis [1])	pest or weed control at 5 µg/cm2 (Rhipicephalus microplus [2])	mortality at 4 ppm (Myzus persicae)	mortality at 4 mg/m2 [3]	mortality at 20 mg/m2 [3]	mortality at 20 mg/m2 [4]	pest or weed control at 32 µg/disc, 100 g/ha (Diabrotica balteata)	pest or weed control at 160 µg/disc, 500 g/ha (Diabrotica balteata)	pest or weed control at 0.004 mg (Rhipicephalus microplus [5])	pest or weed control at 0.02 mg (Rhipicephalus microplus [5])	mortality at 100 g/ha (Spodoptera frugiperda)	pest or weed control at 5 µg/cm2 (Ctenocephalides felis [6])	pest or weed control at 1 µg/cm2, 100 g/ha (Rhipicephalus sanguineus)	pest or weed control at 5 µg/cm2, 500 g/ha (Rhipicephalus sanguineus)	mortality at 4 mg/m2 [4]	mortality at 500 g/ha (Spodoptera frugiperda)	mortality at 0.8 ppm (Myzus persicae)
CC(NC(=O)c1cc(Cl)cc(C(F)(F)F)c1)c1nc(C(F)F)nn1-c1ccc(C#N)cn1 (racemic) [I-9]	100%	100%	100%	80 to 100%	80 to 100%	80 to 100%	100%	100%	100%	100%	100%						
CC(C)c1nc([C@H](C)NC(=O)c2cc(Br)cc(C(F)(F)F)n2)n(-c2ccc(C#N)cn2)n1 [I-20]												80%					
COc1nc([C@H](C)NC(=O)c2cc(Br)cc(Br)c2)n(-c2ccc(C#N)cn2)n1 [I-61]		100%	100%				100%		100%		100%	80%	100%	100%			
C[C@H](NC(=O)c1cc(C(F)(F)F)cc(C(F)(F)F)c1)c1ncnn1-c1cc(C(=O)N(C)CC(F)(F)F)ccn1 [II-88]		100%	100%				100%				100%	100%					
C[C@H](NC(=O)c1cc(Cl)cc(OC(F)(F)F)c1)c1ncnn1-c1cc(C#N)ccn1 [II-33]		100%	100%	80 to 100%	80 to 100%	80 to 100%	100%	100%	100%	100%	100%	90%	80%	80%	80 to 100%	100%	
C[C@H](NC(=O)c1cc(C#N)cc(C(F)(F)F)c1)c1nc(C2CC2)nn1-c1ccc(C#N)cn1 [I-44]	100%	100%		80 to 100%	80 to 100%	80 to 100%	100%		100%		100%				80 to 100%		90%
C[C@H](NC(=O)c1cc(Cl)cc(C(F)(F)F)c1)c1ncnn1-c1cc(-n2ccnc2)ccn1 [II-102]	100%	90%							100%			80%					
CCN(CC)C(=O)c1ccnc(-n2ncnc2[C@H](C)NC(=O)c2cc(C(F)(F)F)cc(C(F)(F)F)c2)c1 [II-85]		100%	100%				100%				83%	100%	100%	100%			
CCc1nc([C@H](C)NC(=O)c2cc(Cl)cc(C(F)(F)F)c2)n(-c2ccc(C#N)cn2)n1 [I-3]		100%	90%	80 to 100%	80 to 100%	80 to 100%	100%	100%	100%	100%	100%	100%			80 to 100%	100%	
CC(C)CNC(=O)c1ccnc(-n2ncnc2[C@H](C)NC(=O)c2cc(C(F)(F)F)cc(C(F)(F)F)c2)c1 [II-90]		100%	100%								83%	80%					
